This is an account of results in US6867211B2, “4-Pyridyl-and 2,4-pyrimidinyl-substituted pyrrole derivatives and their use in pharmacy” (Merckle GmbH, priority 2000, dated 2005).

In test [1] the test system is IL-1β. In words: In vitro test procedure using human whole blood, LPS-stimulated, IL-1β by ELISA. As to conditions: Homo sapiens; whole-blood method. Type of test: cell-based. As for the experimental part:
(§1) In vitro Test Procedure Using Human Whole Blood
(§2) Human potassium-EDTA whole blood (at 400 μl) is preincubated with test substance for 15 min. at 37° C. in a CO2 incubator (5% CO2; 95% moisture-saturated air). The samples are then stimulated for 4 hours with 1 μg/ml of LPS (E. coli 026:B6) at 37° C. in a CO2 incubator (5% CO2; 95% moisture-saturated air). The reaction is ended by placing the samples on ice, addition of DPBS buffer and subsequent centrifugation (1000×g; 15 min). The plasma supernatant is used for the quantification of IL-1β and TNFα by means of ELISA.

The test system of test [2] is IL-1β. Put plainly: In vitro test procedure using PBMCs, LPS-stimulated, IL-1β by ELISA. Type of test: cell-based. As to conditions: Homo sapiens, PBMC; for inhibition at 1 µM / inhibition at 10 µM: 4 h, read-out: IL-1β percentage inhibition; for inhibition at 1 µM: at 1 μmol; for inhibition at 10 µM: at 10 μmol. As for the experimental part:
(§3) In vitro Test Procedure Using PBMCs
(§4) The mononuclear cells (PBMCs) are isolated from human potassium-EDTA whole blood diluted 1:3 by means of density gradient centrifugation (Histopaque®-1.077). After 2 washing steps with DPBS buffer, the mononuclear cells are resuspended in macrophage-SFM medium and adjusted to a cell count of 1×10^6 cells/ml.
(§5) The PBMCs suspension (at 390 μl) is preincubated with test substance for 15 min at 37° C. in a CO2 incubator (5% CO2; 95% moisture-saturated air). The samples are subsequently stimulated for 4 hours with 1 μg/ml LPS (E.coli 026:B6) at 37° C. in a CO2 incubator (5% CO2, 95% moisture-saturated air). The reaction is ended by placing the samples on ice, addition of DPBS buffer and centrifugation (15880×g; 12 min). The supernatant is used for the quantification of IL-1β and TNFα by means of ELISA.

For test [3], the system named is TNFα. In words: In vitro test procedure using human whole blood, LPS-stimulated, TNFα by ELISA. Type of test: cell-based. As to conditions: Homo sapiens; whole-blood method. Here is the method:
as §1, §2

The target in another test is T1, 5-lipoxygenase (Homo sapiens, UniProt P09917).
T1 construct: Human granulocytes are used as a source of the 5-lipoxygenase; endogenous in cells; host or cells: human granulocytes isolated from heparinised blood on a Percoll gradient
T1 sequence (P09917 1-674): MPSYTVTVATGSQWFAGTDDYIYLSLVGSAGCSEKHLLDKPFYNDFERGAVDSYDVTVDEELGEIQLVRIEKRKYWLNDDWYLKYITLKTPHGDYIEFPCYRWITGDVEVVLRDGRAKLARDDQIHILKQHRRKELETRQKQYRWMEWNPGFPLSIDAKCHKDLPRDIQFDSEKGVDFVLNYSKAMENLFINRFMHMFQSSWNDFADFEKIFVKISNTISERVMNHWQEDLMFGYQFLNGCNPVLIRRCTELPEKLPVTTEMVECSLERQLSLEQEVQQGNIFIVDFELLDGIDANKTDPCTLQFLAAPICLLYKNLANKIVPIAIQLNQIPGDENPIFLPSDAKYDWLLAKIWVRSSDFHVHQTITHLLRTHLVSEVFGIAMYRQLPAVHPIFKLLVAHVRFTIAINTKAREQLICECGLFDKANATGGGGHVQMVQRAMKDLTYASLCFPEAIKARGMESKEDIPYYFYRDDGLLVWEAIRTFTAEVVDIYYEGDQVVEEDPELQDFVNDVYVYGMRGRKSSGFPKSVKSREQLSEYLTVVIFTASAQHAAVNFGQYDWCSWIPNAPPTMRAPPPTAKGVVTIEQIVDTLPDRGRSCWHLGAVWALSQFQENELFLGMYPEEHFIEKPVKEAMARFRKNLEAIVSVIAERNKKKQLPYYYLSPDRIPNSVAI
In words: In vitro test system for determining the inhibition of 5-lipoxygenase (LTB4 from human granulocytes, A 23187, ELISA). It counts as cell-based. The note with it: human granulocytes; read-out: 5-LO IC50. Here is the method:
In vitro Test System for Determining the Inhibition of 5-lipoxygenase
Human granulocytes are used as a source of the 5-lipoxygenase. LTB4 (leukotriene B4) is formed from endogenous arachidonic acid by means of stimulation with calcium ionophore A 23187. The granulocytes are isolated and the enzyme reaction is carried out according to known processes (see Arch. Pharm. Pharm. Med. Chem. 330, 307-312 (1997)).
The blood, which is protected from clotting with heparin, is centrifuged on a discontinuous Percoll® gradient and the granulocyte layer is pipetted off. After lysis of the erythrocytes, the granulocytes are washed a number of times and then adjusted to a specific cell count. The enzyme reaction is then started with calcium ionophore A 23187 in the presence or absence of the test substance after addition of Ca2+. The synthesis of the leukotrienes is stopped after 1.5 minutes. The samples are centrifuged off and the supernatant is diluted. LTB4 is determined quantitatively by means of ELISA.

For test [4], the target named is T2, COX2 (from sheep placenta) (Ovis aries, UniProt P79208).
T2 construct: COX2 (from sheep placenta) is preincubated at 4° C. with test substance for 10 min; from tissue; host or cells: sheep placenta
T2 sequence (P79208 17-603): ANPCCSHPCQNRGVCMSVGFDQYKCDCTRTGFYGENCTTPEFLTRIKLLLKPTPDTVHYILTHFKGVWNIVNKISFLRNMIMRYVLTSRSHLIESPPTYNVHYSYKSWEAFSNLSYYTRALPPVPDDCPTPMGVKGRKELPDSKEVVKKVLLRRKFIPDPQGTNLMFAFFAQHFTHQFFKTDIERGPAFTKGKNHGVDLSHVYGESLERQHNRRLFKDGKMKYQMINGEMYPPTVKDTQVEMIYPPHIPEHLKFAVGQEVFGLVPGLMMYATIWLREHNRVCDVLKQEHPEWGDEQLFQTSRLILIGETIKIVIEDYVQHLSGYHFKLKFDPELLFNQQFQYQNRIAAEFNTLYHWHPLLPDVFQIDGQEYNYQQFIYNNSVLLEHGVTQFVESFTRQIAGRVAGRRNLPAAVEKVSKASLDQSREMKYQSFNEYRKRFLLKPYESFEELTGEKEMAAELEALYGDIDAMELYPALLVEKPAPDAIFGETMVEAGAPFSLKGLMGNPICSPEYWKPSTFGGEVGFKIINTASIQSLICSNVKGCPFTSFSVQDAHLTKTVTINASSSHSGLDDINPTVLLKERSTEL
Put plainly: In vitro test system for determining the inhibition of cyclooxygenase-2 (COX2 from sheep placenta, PGE2 ELISA). Type of test: biochemical. The note with it: read-out: COX-2 IC50. Here is the method:
In vitro Test System for Determining the Inhibition of Cyclooxygenase-2
COX2 (from sheep placenta) is preincubated at 4° C. with test substance for 10 min, then stimulated with arachidonic acid (5 μM) at 25° C. for 10 min. […] The determination is carried out at 3 dilutions (10^−7, 10^−6, 10^−5 M). The PGE2 concentrations are quantified by means of ELISA (see Mitchell J. A. et al., Proc. Nat. Acad. Sci. 90: 11693-11697 (1993)).

The subject of test [5] is TNFα. In words: In vitro test procedure using PBMCs, LPS-stimulated, TNFα by ELISA. Type of test: cell-based. As to conditions: Homo sapiens, PBMC; for inhibition at 1 µM: at 1 μmol; for inhibition at 10 µM: at 10 μmol. As for the experimental part: as §3, §4, §5
For another test, the target named is T3, cyclooxygenase-1 (Homo sapiens, UniProt P23219).
T3 construct: endogenous in cells; host or cells: human platelets isolated on a discontinuous Percoll gradient
In words: In vitro test system for determining the inhibition of cyclooxygenase-1 (PGE2 from human platelets, calcium ionophore, ELISA). As to conditions: for IC50: human platelets, read-out: COX-1 IC50. Type of test: cell-based. As for the experimental part: In vitro Test System for Determining the Inhibition of Cyclooxygenase-1
In this test system, the amount of prostaglandin E2 formed from human platelets after addition of calcium ionophore is determined by means of ELISA. In this process, the platelets are obtained after centrifugation on a discontinuous Percoll® gradient. The enzyme reaction and the determination of the metabolites formed is carried out in principle as in the determination of 5-lipoxygenase inhibition. Differences exist with respect to the incubation time. Furthermore, the addition of a thromboxane synthesis inhibitor is necessary (see Arch. Pharm. Pharm. Med. Chem. 330, 307-312 (1997)).

Test [6] has as its target T2, COX2 (from sheep placenta). Put plainly: In vitro test system for determining the inhibition of cyclooxygenase-2 (COX2 from sheep placenta, PGE2 ELISA). Type of test: biochemical. As to conditions: for IC50: value in COX-2 column.
Setting [7] is: 4 h, read-out: TNFα percentage inhibition.
Setting [8] is: at 10 μmol, cells marked 'PBMC:' / 'whole-blood method:'.

Read-outs that look alike come from different tables or passages of the source.

T3 sequence (P23219 24-599): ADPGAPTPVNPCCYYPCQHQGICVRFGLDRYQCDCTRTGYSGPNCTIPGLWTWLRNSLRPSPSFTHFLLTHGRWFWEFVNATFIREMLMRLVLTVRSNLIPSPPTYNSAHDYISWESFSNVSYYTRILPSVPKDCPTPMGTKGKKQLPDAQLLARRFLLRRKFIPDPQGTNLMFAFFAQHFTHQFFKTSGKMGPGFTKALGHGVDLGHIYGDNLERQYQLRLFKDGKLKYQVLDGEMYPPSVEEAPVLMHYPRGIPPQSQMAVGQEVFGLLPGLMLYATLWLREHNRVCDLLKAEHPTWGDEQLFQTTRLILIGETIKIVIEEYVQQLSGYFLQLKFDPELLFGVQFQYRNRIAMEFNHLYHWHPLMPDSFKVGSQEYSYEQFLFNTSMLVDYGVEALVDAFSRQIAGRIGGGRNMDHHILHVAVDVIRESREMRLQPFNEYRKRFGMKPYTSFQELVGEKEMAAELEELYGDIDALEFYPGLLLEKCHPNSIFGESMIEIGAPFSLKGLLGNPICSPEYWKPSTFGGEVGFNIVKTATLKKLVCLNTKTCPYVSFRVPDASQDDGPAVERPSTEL

With `OCc1c(-c2ccncc2)c(-c2ccc(F)cc2)n2c1CCC2` [Example 3, [3-(4-Fluorophenyl)-2-(4-pyridyl)-6,7-dihydro-5H-pyrrolizin-1-yl]methanol], the IC50 in the test with IL-1β [1] was 22 µM; with IL-1β [2], 5 µM; with TNFα [3], 28 µM; at 5-lipoxygenase it was 3.7 µM; in test [4], 5.7 µM; with TNFα [5], 4 µM.

With `Cc1c(-c2ccncc2)c(-c2ccc(F)cc2)n2c1CCC2` [Example 4, 5-(4-Fluorophenyl)-7-methyl-6-(4-pyridyl)-2,3-dihydro-1H-pyrrolizine], the 50% inhibitory concentration (IC50) in the test on IL-1β [1] was 59 µM; in the test with IL-1β [2], 5.7 µM; in the test on TNFα [3] it was 41 µM; at cyclooxygenase-1, 1.9 µM; on 5-lipoxygenase, 2.4 µM; in test [4], 3.4 µM. In the test on TNFα [5], this compound gave an IC50 of 6 µM.

`CCOC(=O)c1c(-c2ccncc2)c(-c2ccc(F)cc2)n2c1SCC2` [Example 10A, Ethyl 5-(4-fluorophenyl)-6-(4-pyridyl)-2,3-dihydropyrrolo-[2,1-b]-thiazole-7-carboxylate]: the IC50 was 30 µM in the test on IL-1β [1]; above 100 µM in the test on IL-1β [2]; 30 µM in the test with TNFα [3]; 3.4 µM at cyclooxygenase-1; 0.065 µM at 5-lipoxygenase; 6.1 µM in test [4]. For the same compound, in the test with TNFα [5], the IC50 worked out at 10 µM.

As for `Fc1ccc(-c2c(-c3ccncc3)cc3n2CCCC3)cc1` [Example 18, 3-(4-Fluorophenyl)-2-(4-pyridyl)-5,6,7,8-tetrahydroindolizine], the IC50 in the test on IL-1β [1] is 36 µM; with IL-1β [2], 7.5 µM; in the test on TNFα [3] it was 37 µM; on 5-lipoxygenase, 3.3 µM; in test [4] it was 1.6 µM. For the same compound, the COX-1 percentage inhibition at cyclooxygenase-1 (at 10 μmol) is listed as 10/35%. The inhibition at 0.1 µM with TNFα [5] (4 h, at 0.1 μmol, read-out: TNFα percentage inhibition) turned out to be 16%. Further, in the test with TNFα [5] (setting [7]), the inhibition at 1 µM worked out at 33%. Moreover, the inhibition at 10 µM in the test with TNFα [5] (setting [7]) was 65%.

As for `CCOC(=O)c1c(-c2ccc(F)cc2)c(-c2ccncc2)n2c1CCC2` [Example 19A, Ethyl 2-(4-fluorophenyl)-3-(4-pyridyl)-6,7-dihydro-5H-pyrrolizine-1-carboxylate], the inhibition at 1 µM with IL-1β [2] and with TNFα [5] (setting [7]) was 0% each time. In addition, the inhibition at 10 µM with IL-1β [2] is 21%; in the test with TNFα [5] (setting [7]), 60%. Further, the IC50 on cyclooxygenase-1 amounted to 2.9 µM; at 5-lipoxygenase it was 2.05 µM; in test [4], 5.5 µM.

`Cc1c(-c2ccc(F)cc2)c(-c2ccncc2)n2c1CCC2` [Example 21, 6-(4-Fluorophenyl)-7-methyl-5-(4-pyridyl)-2,3-dihydro-1H-pyrrolizine] showed a COX-2 percentage inhibition in test [6] (setting [8]) of 33%. Further, the IC50 was found to be 0.34 µM in test [6] (cell marked 'PBMC:'); 6 µM in test [6] (cell marked 'whole-blood method:'); 37 µM with IL-1β [1]; 5.6 µM in the test with IL-1β [2]; 0.13 µM at cyclooxygenase-1; 26 µM in the test on TNFα [5].

Turning to `Fc1ccc(-c2cc3n(c2-c2ccncc2)CCC3)cc1` [Example 22, 6-(4-Fluorophenyl)-5-(4-pyridyl)-2,3-dihydro-1H-pyrrolizine], the inhibition at 10 µM with IL-1β [2] amounted to 59%; in the test with TNFα [5] (setting [7]), 34%. In addition, the IC50 at cyclooxygenase-1 came to 0.23 µM; at 5-lipoxygenase, 0.67 µM; in test [4], 1.5 µM.

On to `CC1(C)CSc2c(-c3ccncc3)c(-c3ccc(F)cc3)cn2C1` [Example 23, 7-(4-Fluorophenyl)-3,3-dimethyl-8-pyridin-4-yl-3,4-dihydro-2H-pyrrolo[2,1-b][1,3]thiazine], for which the COX-2 percentage inhibition in test [6] (at 1 μmol, cell marked 'PBMC:') is reported as 10%; in test [6] (setting [8]), 50%. The figures for the IC50 (in test [6] (cell marked 'PBMC:'); on cyclooxygenase-1; on 5-lipoxygenase) were 4 µM, 3.5 µM and 0.05 µM, respectively. Moreover, the inhibition at 1 µM is 19% in the test with IL-1β [2] and 0% in the test on TNFα [5] (setting [7]). For the same compound, the COX-1 percentage inhibition on cyclooxygenase-1 (at 1.0 μmol) turned out to be 0%; on cyclooxygenase-1 (at 10 μmol), 83%. In addition, the inhibition at 10 µM with TNFα [5] (setting [7]) stood at 79%.
